Results on 57 compounds are retold here after the RepoRT retention time repository.

Each structure is given as a SMILES string.

This data set is described as follows: HILIC, HILICON iHILIC-(P) Classic, HILIC, PEEK, 50 × 2.1 mm, 5 µm, 30 °C, 0.12 mL/min, estimated dead time 0.92 min; A: water + 20 mM ammonium carbonate; B: acetonitrile; gradient (min/%B) 0/80 1/80 21/20 21.5/20 26.5/20 27.5/80 35/80. The conditions noted are these: stereoisomer not certain.
For the compound `CCC(C)C(N)C(=O)O` (configuration not stated) [Isoleucine], the LC retention time was 6.75 min.

Turning to `NC(=O)CC(N)C(=O)O` (configuration not stated) [Asparagine], the LC retention time is 11.1 min.

On to `C=C(OP(=O)(O)O)C(=O)O` [PEP], for which the LC retention time is 13.6 min.

On to `NC(=O)C1=CN(C2OC(COP(=O)(O)OP(=O)(O)OCC3OC(n4cnc5c(N)ncnc54)C(OP(=O)(O)O)C3O)C(O)C2O)C=CC1` (configuration not stated) [NADPH], for which the LC retention time is 16.3 min.

For `Nc1ccn(C2OC(COP(=O)(O)O)C(O)C2O)c(=O)n1` (configuration not stated) [CMP], the LC retention time was 10.8 min.

In the case of `O=C(O)CCCCC1SCC2NC(=O)NC21` (configuration not stated) [Biotin], the LC retention time was 3.76 min.

Consider `O=C(O)C1CCCN1` (configuration not stated) [Proline], for which the LC retention time is 7.48 min.

For the compound `NC(Cc1ccccc1)C(=O)O` (configuration not stated) [Phenylalanine], the LC retention time was 5.37 min.

In the case of `O=c1ccn(C2OC(COP(=O)(O)O)C(O)C2O)c(=O)[nH]1` (configuration not stated) [UMP], the LC retention time was 9.59 min.

`Nc1ncnc2nc[nH]c12` [Adenine]: the LC retention time was 3.84 min.

`O=C(O)C(CO)OP(=O)(O)O` (configuration not stated) [Phosphoglyceric acid A]: the LC retention time was 13.6 min.

Regarding `NCCCC(N)C(=O)O` (configuration not stated) [Ornithine], the LC retention time was 17.7 min.

In the case of `NC(=O)C1=CN(C2OC(COP(=O)(O)OP(=O)(O)OCC3OC(n4cnc5c(N)ncnc54)C(O)C3O)C(O)C2O)C=CC1` (configuration not stated) [NADH], the LC retention time is 9.95 min.

On to `O=C(CO)COP(=O)(O)O` [Triose phosphate], for which the LC retention time is 11.5 min.

As for `NC(=O)CCC(N)C(=O)O` (configuration not stated) [Glutamine], the LC retention time is 8.86 min.

As for `Nc1nc2c(ncn2C2OC(COP(=O)(O)OP(=O)(O)O)C(O)C2O)c(=O)[nH]1` (configuration not stated) [GDP], the LC retention time is 14.8 min.

In the case of `O=c1ccn(C2OC(COP(=O)(O)OP(=O)(O)O)C(O)C2O)c(=O)[nH]1` (configuration not stated) [UDP], the LC retention time is 12.3 min.

In the case of `NC(=O)c1ccc[n+](C2OC(COP(=O)(O)OP(=O)(O)OCC3OC(n4cnc5c(N)ncnc54)C(O)C3O)C(O)C2O)c1` (configuration not stated) [NAD], the LC retention time is 9.43 min.

On to `O=P(O)(O)OCC(O)CO` (configuration not stated) [Glycerol-3-phosphate], for which the LC retention time was 10.9 min.

For `O=C(O)CCC(=O)O` [Succinic Acid], the LC retention time is 12.1 min.

Consider `CC(C)C(N)C(=O)O` (configuration not stated) [Valine], for which the LC retention time was 6.97 min.

Turning to `CC(=O)NC1C(OP(=O)(O)OP(=O)(O)OCC2OC(n3ccc(=O)[nH]c3=O)C(O)C2O)OC(CO)C(O)C1O` (configuration not stated) [UDP-GlcNAc], the LC retention time was 11.9 min.

As for `O=C(O)CC(=O)O` [Malonic Acid], the LC retention time is 9.63 min.

As to `O=C(O)CC(O)(CC(=O)O)C(=O)O` [Citric acid], the LC retention time is 16.5 min.

Regarding `Nc1nc2c(ncn2C2OC(CO)C(O)C2O)c(=O)[nH]1` (configuration not stated) [Guanosine], the LC retention time is 7.27 min.

For `O=C(O)C1(O)CC(O)C(O)C(O)C1` (configuration not stated) [Quinic Acid], the LC retention time was 6.75 min.

As for `NC(CCC(=O)O)C(=O)O` (configuration not stated) [Glutamic acid], the LC retention time is 10.2 min.

`O=C(O)c1cccnc1` [Nicotinic acid]: the LC retention time is 2.1 min.

Turning to `Nc1nc2c(ncn2C2OC(COP(=O)(O)O)C(O)C2O)c(=O)[nH]1` (configuration not stated) [GMP], the LC retention time is 13.9 min.

For `CC(O)C(=O)O` (configuration not stated) [Lactic Acid], the LC retention time is 3.22 min.

As to `O=c1ccn(C2OC(COP(=O)(O)OP(=O)(O)OP(=O)(O)O)C(O)C2O)c(=O)[nH]1` (configuration not stated) [UTP], the LC retention time was 14.1 min.

`Nc1ncnc2c1ncn2C1OC(COP(=O)(O)OP(=O)(O)O)C(O)C1O` (configuration not stated) [ADP]: the LC retention time is 12.5 min.

As to `O=C(O)CC(O)C(=O)O` (configuration not stated) [Malic Acid], the LC retention time is 13 min.

As for `NCCCCC(N)C(=O)O` (configuration not stated) [Lysine], the LC retention time is 18.4 min.

As to `CSCCC(N)C(=O)O` (configuration not stated) [Methionine], the LC retention time is 6.99 min.

`NC(CCC(=O)NC(CS)C(=O)NCC(=O)O)C(=O)O` (configuration not stated) [GSH]: the LC retention time was 8.95 min.

In the case of `Nc1ncnc2c1ncn2C1OC(CO)C(O)C1O` (configuration not stated) [Adenosine], the LC retention time is 3.76 min.

Take `Nc1ccn(C2OC(COP(=O)(O)OP(=O)(O)O)C(O)C2O)c(=O)n1` (configuration not stated) [CDP]: the LC retention time is 13.2 min.

With `CC(=O)NC(CC(=O)O)C(=O)O` (configuration not stated) [N-Acetylaspartic acid], the LC retention time is 9.49 min.

Regarding `NC(CCC(=O)NC(CSSCC(NC(=O)CCC(N)C(=O)O)C(=O)NCC(=O)O)C(=O)NCC(=O)O)C(=O)O` (configuration not stated) [GSSG], the LC retention time is 15.6 min.

Take `Nc1nc2ncc(CNc3ccc(C(=O)NC(CCC(=O)O)C(=O)O)cc3)nc2c(=O)[nH]1` (configuration not stated) [Folic Acid]: the LC retention time is 14.4 min.

As for `O=C(O)CC(C(=O)O)C(O)C(=O)O` (configuration not stated) [Isocitric acid], the LC retention time was 15.8 min.

As to `NC(CSSCC(N)C(=O)O)C(=O)O` (configuration not stated) [Cystine], the LC retention time is 11.8 min.

For `NC(CO)C(=O)O` (configuration not stated) [Serine], the LC retention time is 9.56 min.

Regarding `Nc1ncnc2c1ncn2C1OC(COP(=O)(O)OP(=O)(O)OP(=O)(O)O)C(O)C1O` (configuration not stated) [ATP], the LC retention time was 13.9 min.

For `Nc1ccn(C2OC(CO)C(O)C2O)c(=O)n1` (configuration not stated) [Cytidine], the LC retention time is 6.28 min.

Turning to `Nc1nc2c(ncn2C2OC(COP(=O)(O)OP(=O)(O)OP(=O)(O)O)C(O)C2O)c(=O)[nH]1` (configuration not stated) [GTP], the LC retention time was 16.9 min.

Consider `CC(=O)SCCNC(=O)CCNC(=O)C(O)C(C)(C)COP(=O)(O)OP(=O)(O)OCC1OC(n2cnc3c(N)ncnc32)C(O)C1OP(=O)(O)O` (configuration not stated) [Acetyl-CoA], for which the LC retention time was 8.59 min.

For the compound `NC(=O)c1ccc[n+](C2OC(COP(=O)([O-])O)C(O)C2O)c1` (configuration not stated) [NMN], the LC retention time was 9.99 min.

On to `Nc1ncnc2c1ncn2C1OC(COP(=O)(O)O)C(O)C1O` (configuration not stated) [AMP], for which the LC retention time is 8.62 min.

For the compound `CC(C)CC(N)C(=O)O` (configuration not stated) [Leucine], the LC retention time was 5.63 min.

Turning to `NC(=O)c1ccc[n+](C2OC(COP(=O)(O)OP(=O)(O)OCC3OC(n4cnc5c(N)ncnc54)C(OP(=O)(O)O)C3O)C(O)C2O)c1` (configuration not stated) [NADP], the LC retention time is 13.4 min.

For the compound `O=C1OC(C(O)CO)C(O)=C1O` (configuration not stated) [Ascorbic Acid], the LC retention time was 9.51 min.

Consider `NC(Cc1ccc(O)cc1)C(=O)O` (configuration not stated) [Tyrosine], for which the LC retention time is 8.15 min.

Consider `CC(O)C(N)C(=O)O` (configuration not stated) [Threonine], for which the LC retention time was 8.47 min.

In the case of `Cc1ncc(C[n+]2csc(CCO)c2C)c(N)n1` [Thiamine], the LC retention time is 12.7 min.

`NC(Cc1c[nH]c2ccccc12)C(=O)O` (configuration not stated) [Tryptophan]: the LC retention time was 6.31 min.
